Data taken from US8962600B2, “Neuroprotective compounds and their use” (The Medical College of Wisconsin, Inc., priority 2009, dated 2015).

What was measured:
[1] = test system: tyrosine hydroxylase (TH); experiment: Tyrosine hydroxylase expression in striatum and substantia nigra, Western blot and DAB immunostaining; assay type: in vivo, C57BL/6 mice
Description: Six- to 8-week-old C57BL/6 mice weighing 24 to 28 g were housed in standard conditions of constant temperature (22±1° C.), humidity (relative, 30%), and a 12-h light/dark cycle. Mice were allowed free access to food and water. Use of the animals and protocol procedures were approved and supervised by the Committee on Animal Care at Iowa State University (Ames, Iowa). For neurodegeneration studies, mice either received diapocynin (300 mg/kg dose) by oral gavage for 1 day (pre-treatment before MPTP administration), 5 days (co-treatment with MPTP), or 7 days (post-treatment after MPTP).
DAB immunostaining was performed in striatal and substantia nigra sections as described previously (57). In brief, 1 day or 7 days after final dosing of MPTP, mice were sacrificed and perfused with 4% PFA and post-fixed with PFA and 30% sucrose, respectively. Next, fixed brains were cut into 30 μm sections and kept in 30% sucrose-ethylene glycol solutions at −20° C. On the day of staining, sections were rinsed with PBS and incubated with either anti-TH (rabbit anti-mouse, 1:1800; Calbiochem, Gibstown, N.J.), anti-IBA-1 (goat anti-mouse, 1:1000; Dako), anti-GFAP (mouse anti-mouse, 1:1000; Millipore, Billerica, Mass.), or anti-gp91phox (mouse anti-mouse, 1:500; Santa Cruz Biotechnology) overnight at 4° C. […]

BV2 microglial cells = experiment: LPS-induced iNOS activation (nitrite, Griess reagent) in BV2 microglial cells; assay type: cell-based, mouse; conditions: 30 min pretreatment
Description: Two cell models of neuroinflammation were used to evaluate the anti-neuroinflammatory property of diapocynin including the mouse BV2 microglial cell line, as well as primary microglia isolated from mouse brains. BV2 cells were obtained from the American Tissue Culture Collection. BV2 cells were maintained in RPMI containing 10% FBS and 100 units of pen/strep at 37° C. and 5% CO2. For treatments, RPMI containing 2% FBS and 100 units of pen/strep was used.
Inducible nitric oxide synthase (iNOS or NOS2) activation was assessed by measuring nitrite levels using Griess reagent in a 96-well format (70-72). Each well contained 40,000 BV2 cells or 100,000 primary microglia. BV2 cells were cultured in 150 μl of RPMI containing 10% FBS and pen/strep, and the primary microglia were cultured in DMEM-F12 containing 10% FBS, pen/strep, sodium pyruvate (S/P), Q, and NEAAs. One day after culturing, cells were replaced with 150 μl of their respective complete media containing only 2% FBS. Both cell types were pretreated with diapocynin (10 μM) and apocynin (100 μM) for 30 min before LPS stimulation (1 μg/ml LPS for BV2 cells and 100 ng/ml for primary microglia), and the plates were incubated at 37° C. After 24 hr at 37° C., 100 μl of supernatant were removed and placed into a new 96 well plate, to which 100 μl of Griess reagent were added. The plate was shaken on a plate shaker for 10 min before being read in a plate reader at 540 nm.
This example generally followed the cell culture, treatment, and analysis steps of Example 4 above.
Diapocynin diacetate (diapodiacetate or diapo diace) suppresses LPS-induced NOS-2 in BV2 microglial cells (FIG. 21). BV-2 cells were plated in 96 well plates, 40,000 cells per well, and treated in 150 μl of RPMI containing 2% heat inactivated FBS and penicillin/streptomycin. Diapo diacetate was used on the cells as a 30 min pretreatment, then LPS (1 μg/ml) was added. All treatments were allowed to incubate at 37° C. for 24 hr, starting from the addition of LPS. One hundred microliter aliquots of supernatant from each well were combined with 100 μl of Griess reagent (Sigma) in a 96-well plate and allowed to shake for 10 minutes before being read on the plate reader. The percent nitrite level for the treatments compared to the control was graphed.

IBA-1 = IBA-1 expression in substantia nigra (microglial activation), immunostaining; assay type: in vivo, C57BL/6 mice; conditions: diapocynin 300 mg/kg gavage, 1 day pre-treatment + 4 days co-treatment with MPTP 25 mg/kg i.p.
Description: (§1) For checking inflammatory and oxidative stress markers, mice were gavaged diapocynin (300 mg/kg dose) 1 day before MPTP treatment (pre-treatment) and continued for another 4 days of co-treatment with MPTP. In the sub-acute MPTP regimen, MPTP (25 mg/kg) was injected intraperitoneally once per day from day 2 to day 7. Control mice received saline at the same dosage.
(§2) Four days after MPTP treatment, mice were perfused with 4% paraformaldehyde (PFA) and post-fixed with PFA and 30% sucrose, respectively. Next, fixed brains were cut into 30 μm sections and kept in 30% sucrose-ethylene glycol solutions at −20° C. On the day of staining, sections were rinsed with phosphate-buffered saline (PBS) and incubated with different primary antibodies, including anti-IBA-1 (DAKO, Carpinteria, Calif.), anti-GFAP (Millipore, Billerica, Mass.), anti-iNOS (Santa Cruz Biotechnology, Santa Cruz, Calif.), anti-3NT (Millipore), anti-4HNE (R&D Systems, Minneapolis, Minn.) and anti-gp91phox (Santa Cruz Biotechnology) for overnight at 4° C. Appropriate secondary antibodies (Alexa Fluor 488, 594, or 555 from Invitrogen, Carlsbad, Calif.) were used followed by incubation with 10 μg/ml Hoechst 33342 for 5 min at room temperature to stain the nucleus. Sections were viewed under a Nikon inverted fluorescence microscope (model TE-2000U; Nikon, Tokyo, Japan). […]

3-nitrotyrosine (3-NT) = experiment: 3-nitrotyrosine expression in substantia nigra, Western blot and immunostaining; assay type: in vivo, C57BL/6 mice
Description: as §1, §2

For `COc1cc(C(C)=O)cc(-c2cc(C(C)=O)cc(OC)c2O)c1O` [diapocynin], the “expression of TH in striatum and substantia nigra (Western blot)” value ([1]; MPTP- and diapocynin-treated mice, 300 mg/kg oral gavage) was “less reduction”, the “loss of TH-positive neurons and terminals in striatum and substantia nigra (TH-DAB immunostaining)” value ([1]; MPTP-treated mice with diapocynin treatment 300 mg/kg oral gavage) was “substantially prevented” and the “attenuating LPS-induced iNOS activation, compared with apocynin 100 μM” value (BV2 microglial cells; BV2 cells, diapocynin 10 μM, LPS 1 μg/ml 24 hr) was “just as effective”. For the same compound, the EC50 (BV2 microglial cells; Mus musculus, BV-2 cells, LPS 1 μg/ml, Griess reagent, non-linear regression of dose response curve, read-out: EC50, block of LPS-induced iNOS activation (nitrite level)) was 7.76 µM, the “IBA-1 protein expression in substantia nigra” value (IBA-1) was “inhibition” and the “MPTP-induced expression of 3-NT in substantia nigra” value (3-nitrotyrosine (3-NT); diapocynin 300 mg/kg gavage, MPTP 25 mg/kg i.p.) was “attenuated”. The “TH positive cells colocalized with 3-NT” value (3-nitrotyrosine (3-NT); double-labeling, MPTP-treated mice that also received diapocynin 300 mg/kg) was “very few”.
